Measurements taken from ChEMBL document CHEMBL1150389, “Synthesis and evaluation of heteroaromatic 6,7-diaryl-2,3,8,8a-tetrahydroindolizin-5(1H)-ones for cytotoxicity against the HCT-116 colon cancer cell line” (Bioorg Med Chem Lett, 2008).

Tested on: HCT-116
Assay: Cytotoxicity against human HCT116 cells
Type: functional, cell-based

Row | SMILES | IC50 [µM]
1 | COc1ccc(C2=C(c3ccccn3)C(=O)N3CCCC3C2)cc1 (stereo not drawn) | 104
2 | CSc1ccc(C2=C(c3ccoc3)C(=O)N3CCCC3C2)cc1 (stereo not drawn) | 1.1
3 | COc1ccc(C2=C(c3ccncc3)C(=O)N3CCCC3C2)cc1 (stereo not drawn) | 19
4 | COc1ccc(C2=C(c3ccco3)C(=O)N3CCCC3C2)cc1 (stereo not drawn) | 6
5 | COc1ccc(C2=C(c3ccoc3)C(=O)N3CCCC3C2)cc1 (stereo not drawn) | 3
6 | CSc1ccc(C2=C(c3ccccc3)C(=O)N3CCCC3C2)cc1 (stereo not drawn) | 1
7 | CSc1ccc(C2=C(c3ccncc3)C(=O)N3CCCC3C2)cc1 (stereo not drawn) | 6
8 | CSc1ccc(C2=C(c3ccsc3)C(=O)N3CCCC3C2)cc1 (stereo not drawn) | 0.6
9 | CSc1ccc(C2=C(c3cccs3)C(=O)N3CCCC3C2)cc1 (stereo not drawn) | 0.27
10 | CSc1ccc(C2=C(c3ccco3)C(=O)N3CCCC3C2)cc1 (stereo not drawn) | 3
11 | COc1ccc(C2=C(c3cccs3)C(=O)N3CCCC3C2)cc1 (stereo not drawn) | 5
12 | COc1ccc(C2=C(c3ccsc3)C(=O)N3CCCC3C2)cc1 (stereo not drawn) | 1.5
13 | COc1ccc(C2=C(c3cccnc3)C(=O)N3CCCC3C2)cc1 (stereo not drawn) | 79
